Tests used:
Format in all cases: cell-based
[1] = tested on: histamine release by mastocytes; test: Release of histamine by mastocytes stimulated with substance P (ELISA); settings: 10 nM calcium; 10 μM substance P
Procedure: The mastocytes were then stimulated with 10 μM substance P for 15 minutes. At the end of incubation, the release of histamine was quantified by ELISA.
(§1) The results were analyzed statistically by a Student's t-test.

[2] = tested on: IL8 production by human keratinocytes (NCTC-2544 cell line); test: Production of IL8 by PMA-stimulated keratinocytes (ELISA); settings: 10^−7 M dexamethasone, 0.1 μg/ml PMA
Procedure: The cells were then treated with 0.1 μg/ml phorbol myristate acetate (PMA) for 24 hours, always in the presence of AV or the references.
At the end of the treatment, the quantities of interleukin 8 (IL8) and prostaglandin E2 (PGE2) secreted were measured by ELISA in the culture supernatants.
as §1

[3] = tested on: PGE2 production by human keratinocytes (NCTC-2544 cell line); test: Production of PGE2 by PMA-stimulated keratinocytes (ELISA); settings: 10^−6 M indomethacin, 0.1 μg/ml PMA
[4] = tested on: Normal human epidermal melanocytes; test: Melanin production by melanocytes stimulated by NDP-MSH; settings: 0.25 mM kojic acid; 10^−7 M NDP-MSH; 240 hours
Procedure: After 240 hours of incubation, melanin was extracted from the cells and quantified by spectrophotometry. The results were analyzed statistically by a Student's t-test.

[5] = tested on: MMP9 gene expression in normal human keratinocytes; test: Gene expression of MMP9 in keratinocytes, real-time RT-PCR; settings: 5 ng/ml TGFβ1; 48 hours
Procedure: (§2) Normal human keratinocytes were incubated for 48 hours in the presence of the avocado extract concentrated in polyphenols (AV) at concentrations of 0.001% and 0.005% (w/v of active material) or 5 ng/ml TGFβ1 (reference).
(§3) The gene expression of MMP9 and laminin-5 (subunit γ2) was studied by real-time RT-PCR.
(§4) The results were analyzed statistically by a one-factor ANOVA followed by a Dunnett's test: ns (not significant) p>0.05; *p<0.05; ***p<0.001.

[6] = tested on: laminin-5 (subunit γ2) gene expression in normal human keratinocytes; test: Gene expression of laminin-5 (subunit γ2) in keratinocytes, real-time RT-PCR; settings: 5 ng/ml TGFβ1; 48 hours
Procedure: as §2, §3, §4

[Ca+2] [Calcium, calcium]
Histamine [1]: 21.8 ± 1.0 ng/mL
Inhibition of histamine release [1]: −85% p < 0.01

C[C@@H]1C[C@H]2[C@@H]3CCC4=CC(=O)C=C[C@]4(C)[C@@]3(F)[C@@H](O)C[C@]2(C)[C@@]1(O)C(=O)CO [Dexamethasone, dexamethasone]
IL8 [2]: 7.4 ± 0.8 ng/mL
inhibition at 0.1 µM ([2]; Homo sapiens, NCTC-2544): 85%

COc1ccc2c(c1)c(CC(=O)O)c(C)n2C(=O)c1ccc(Cl)cc1 [Indomethacin, indomethacin]
PGE2 [3]: 0.039 ± 0.0 ng/mL
inhibition at 1 µM ([3]; Homo sapiens, NCTC-2544): 100%

O=c1cc(CO)occ1O [Kojic acid, kojic acid]
Change in melanin versus stimulated control [4]: −32% p < 0.001

TGFβ1: 5 ng/ml TGFβ1 (reference) in keratinocyte migration marker test
MMP9 gene expression (relative quantity) [5]: 19.84
MMP9 gene expression, change versus control cells [5]: +1884% ***
Laminin-5 gene expression (relative quantity) [6]: 11.33
Laminin-5 gene expression, change versus control cells [6]: +1033% ***
